Data taken from US11866720B2, “Transgenic or non-transgenic plants with mutated protoporphyrinogen oxidase having increased tolerance to herbicides” (priority 2013, dated 2024).
Substitutions are numbered along the chain they refer to. Where “and” joins values, the source holds several entries; their conditions need not be identical. Identical values can stand only once.

What was measured:
Test in all cases: biochemical
[1] = target: T1, recombinant wildtype and mutated PPO (Amaranthus PPO2: PPX2L_WC SEQ ID NO 2, PPX2L_AC SEQ ID NO 4, dG210 SEQ ID NO 6 & 8) (Amaranthus tuberculatus, UniProt Q0NZW9, D133A/F420I/R128I); settings: IC50 (M)
T1 sequence (Q0NZW9 1-534 R128I/D133A/F420I): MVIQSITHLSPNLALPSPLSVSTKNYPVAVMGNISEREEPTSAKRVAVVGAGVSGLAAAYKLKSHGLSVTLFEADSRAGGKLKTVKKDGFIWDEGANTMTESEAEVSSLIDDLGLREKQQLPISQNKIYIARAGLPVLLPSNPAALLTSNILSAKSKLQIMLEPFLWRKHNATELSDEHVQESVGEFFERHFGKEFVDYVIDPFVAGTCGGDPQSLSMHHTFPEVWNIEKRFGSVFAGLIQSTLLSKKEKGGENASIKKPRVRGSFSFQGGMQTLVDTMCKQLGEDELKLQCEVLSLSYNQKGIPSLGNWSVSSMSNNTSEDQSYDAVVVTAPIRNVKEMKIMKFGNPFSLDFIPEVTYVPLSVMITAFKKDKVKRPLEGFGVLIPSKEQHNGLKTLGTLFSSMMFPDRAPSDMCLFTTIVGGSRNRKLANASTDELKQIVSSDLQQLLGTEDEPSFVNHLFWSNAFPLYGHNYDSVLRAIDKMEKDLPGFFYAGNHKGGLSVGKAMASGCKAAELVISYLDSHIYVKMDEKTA

[2] = target: recombinant wildtype and mutated PPO (Amaranthus PPO2: PPX2L_WC SEQ ID NO 2, PPX2L_AC SEQ ID NO 4, dG210 SEQ ID NO 6 & 8) (Amaranthus tuberculatus, UniProt Q0NZW9, D133A/F420M/R128H); settings: IC50 (M)
[3] = target: recombinant wildtype and mutated PPO (Amaranthus PPO2: PPX2L_WC SEQ ID NO 2, PPX2L_AC SEQ ID NO 4, dG210 SEQ ID NO 6 & 8) (Amaranthus tuberculatus, UniProt Q0NZW9, D133A/F420M/R128C); settings: IC50 (M)
[4] = target: recombinant wildtype and mutated PPO (Amaranthus PPO2: PPX2L_WC SEQ ID NO 2, PPX2L_AC SEQ ID NO 4, dG210 SEQ ID NO 6 & 8) (Amaranthus tuberculatus, UniProt Q0NZW9, D133A/F420V/R128C); settings: IC50 (M)
[5] = target: recombinant wildtype and mutated PPO (Amaranthus PPO2: PPX2L_WC SEQ ID NO 2, PPX2L_AC SEQ ID NO 4, dG210 SEQ ID NO 6 & 8) (Amaranthus tuberculatus, UniProt Q0NZW9, D133A/F420L/R128H); settings: IC50 (M)
[6] = target: recombinant wildtype and mutated PPO (Amaranthus PPO2: PPX2L_WC SEQ ID NO 2, PPX2L_AC SEQ ID NO 4, dG210 SEQ ID NO 6 & 8) (Amaranthus tuberculatus, UniProt Q0NZW9, D133A/F420L/R128C); settings: IC50 (M)
[7] = target: T2, recombinant wildtype and mutated PPO (Amaranthus PPO2: PPX2L_WC SEQ ID NO 2, PPX2L_AC SEQ ID NO 4, dG210 SEQ ID NO 6 & 8) (Amaranthus tuberculatus, UniProt Q0NZW9, D133A/F420M/R128Y); settings: IC50 (M)
T2 sequence (Q0NZW9 1-534 R128Y/D133A/F420M): T1 sequence (Q0NZW9 1-534 R128I/D133A/F420I) with I128Y, I420M

[8] = target: recombinant wildtype and mutated PPO (Amaranthus PPO2: PPX2L_WC SEQ ID NO 2, PPX2L_AC SEQ ID NO 4, dG210 SEQ ID NO 6 & 8) (Amaranthus tuberculatus, UniProt Q0NZW9, D133A/F420M/R128S); settings: IC50 (M)
[9] = target: T3, recombinant wildtype and mutated PPO (Amaranthus PPO2: PPX2L_WC SEQ ID NO 2, PPX2L_AC SEQ ID NO 4, dG210 SEQ ID NO 6 & 8) (Amaranthus tuberculatus, UniProt Q0NZW9, R128A/F420M, form not given)
T3 sequence (Q0NZW9 1-534 R128A/F420M): T1 sequence (Q0NZW9 1-534 R128I/D133A/F420I) with I128A, A133D, I420M

recombinant wildtype and mutated PPO (Amaranthus PPO2: PPX2L_WC SEQ ID NO 2, PPX2L_AC SEQ ID NO 4, dG210 SEQ ID NO 6 & 8) (Amaranthus tuberculatus, UniProt Q0NZW9, D133A/F420M/R128C), sequence (Q0NZW9 1-534 R128C/D133A/F420M): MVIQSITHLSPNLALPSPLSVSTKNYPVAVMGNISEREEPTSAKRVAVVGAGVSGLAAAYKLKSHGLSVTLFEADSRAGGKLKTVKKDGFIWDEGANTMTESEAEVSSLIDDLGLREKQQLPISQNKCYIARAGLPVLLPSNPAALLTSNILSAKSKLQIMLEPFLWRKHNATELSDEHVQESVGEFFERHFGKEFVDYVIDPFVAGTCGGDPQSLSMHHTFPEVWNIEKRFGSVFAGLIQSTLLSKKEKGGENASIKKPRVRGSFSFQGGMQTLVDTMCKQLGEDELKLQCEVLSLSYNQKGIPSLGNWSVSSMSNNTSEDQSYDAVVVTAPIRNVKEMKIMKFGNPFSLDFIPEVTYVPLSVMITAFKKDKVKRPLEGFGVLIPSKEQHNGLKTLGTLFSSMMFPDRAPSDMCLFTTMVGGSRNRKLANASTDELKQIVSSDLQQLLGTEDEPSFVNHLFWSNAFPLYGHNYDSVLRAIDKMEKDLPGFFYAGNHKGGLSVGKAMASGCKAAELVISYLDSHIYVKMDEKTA
recombinant wildtype and mutated PPO (Amaranthus PPO2: PPX2L_WC SEQ ID NO 2, PPX2L_AC SEQ ID NO 4, dG210 SEQ ID NO 6 & 8) (Amaranthus tuberculatus, UniProt Q0NZW9, D133A/F420M/R128H), sequence (Q0NZW9 1-534 R128H/D133A/F420M): as the sequence (Q0NZW9 1-534 R128C/D133A/F420M) above, with C128H counted along it
recombinant wildtype and mutated PPO (Amaranthus PPO2: PPX2L_WC SEQ ID NO 2, PPX2L_AC SEQ ID NO 4, dG210 SEQ ID NO 6 & 8) (Amaranthus tuberculatus, UniProt Q0NZW9, D133A/F420L/R128H), sequence (Q0NZW9 1-534 R128H/D133A/F420L): as the sequence (Q0NZW9 1-534 R128C/D133A/F420M) above, with C128H, M420L counted along it
recombinant wildtype and mutated PPO (Amaranthus PPO2: PPX2L_WC SEQ ID NO 2, PPX2L_AC SEQ ID NO 4, dG210 SEQ ID NO 6 & 8) (Amaranthus tuberculatus, UniProt Q0NZW9, D133A/F420V/R128C), sequence (Q0NZW9 1-534 R128C/D133A/F420V): as the sequence (Q0NZW9 1-534 R128C/D133A/F420M) above, with M420V counted along it
recombinant wildtype and mutated PPO (Amaranthus PPO2: PPX2L_WC SEQ ID NO 2, PPX2L_AC SEQ ID NO 4, dG210 SEQ ID NO 6 & 8) (Amaranthus tuberculatus, UniProt Q0NZW9, D133A/F420L/R128C), sequence (Q0NZW9 1-534 R128C/D133A/F420L): as the sequence (Q0NZW9 1-534 R128C/D133A/F420M) above, with M420L counted along it
recombinant wildtype and mutated PPO (Amaranthus PPO2: PPX2L_WC SEQ ID NO 2, PPX2L_AC SEQ ID NO 4, dG210 SEQ ID NO 6 & 8) (Amaranthus tuberculatus, UniProt Q0NZW9, D133A/F420M/R128S), sequence (Q0NZW9 1-534 R128S/D133A/F420M): as the sequence (Q0NZW9 1-534 R128C/D133A/F420M) above, with C128S counted along it

With `C#CCN1C(=O)C(F)(F)Oc2cc(F)c(-n3c(=O)n(C)c(=S)n(C)c3=O)cc21` the IC50 [1] was 1.38e-07 M, the IC50 [2] was 2.64e-08 M and 2.13e-08 M and the IC50 [3] was 2.53e-08 M and 2.33e-08 M. For the same molecule, the IC50 [4] was 1.66e-07 M and 2.66e-07 M, the IC50 [5] was 7.98e-08 M and the IC50 [6] was 1e-07 M and 1.83e-07 M. For the same molecule, the IC50 [7] was 2.85e-07 M and 1.02e-07 M and the IC50 [8] was 2.4e-08 M.

Molecule `C#CCN1C(=O)C(F)(F)Oc2cc(F)c(-n3c(=O)cc(C(F)(F)F)n(C)c3=O)cc21` has an IC50 [2] of 1.05e-08 M, an IC50 [3] of 1.11e-08 M and an IC50 [4] of 2.6e-08 M. For the same molecule, the IC50 [6] was 6.72e-08 M, the IC50 [9] was 2.56 nM and the IC50 [7] was 1.13e-07 M.

For `C#CCN1C(=O)C(F)(F)Oc2cc(F)c(N3C(=O)C4=C(CCCC4)C3=O)cc21`, the IC50 [2] was 3.07e-06 M, the IC50 [3] was 3.57e-06 M and the IC50 [4] was 3.7e-06 M. The IC50 [6] was at least 1e-05 M, the IC50 [9] was 641 nM and the IC50 [7] was at least 1e-05 M.

`COC(Oc1ccccc1Oc1cc(-n2c(=O)cc(C(F)(F)F)n(C)c2=O)c(F)cc1Cl)C(=O)OC1CCCCC1` (stereo not shown) gave an IC50 [1] of 1.82e-06 M, an IC50 [2] of 2.97e-07 M and an IC50 [3] of 2.98e-08 M. The IC50 [4] was 1.01e-07 M, the IC50 [5] was 6.93e-07 M and the IC50 [8] was 5.24e-08 M.

Molecule `COC(=O)C(OC)Oc1ccccc1Oc1cc(-n2c(=O)cc(C(F)(F)F)n(C)c2=O)c(F)cc1Cl` (stereo not shown) has an IC50 [1] of 2.27e-08 M, an IC50 [2] of 1.76e-08 M and an IC50 [3] of 1.16e-08 M. For the same molecule, the IC50 [4] was 1.16e-08 M, the IC50 [5] was 4.47e-08 M and the IC50 [8] was 3.62e-08 M.

`CCOC(=O)COc1ncccc1Oc1cc(-n2c(=O)cc(C(F)(F)F)n(C)c2=O)c(F)cc1Cl` [A.13, ethyl [3-[2-chloro-4-fluoro-5-(1-methyl-6-trifluoromethyl-2,4-dioxo-1,2,3,4-tetrahydropyrimidin-3-yl)phenoxy]-2-pyridyloxy]acetate] showed an IC50 [2] of 4.18e-08 M, an IC50 [3] of 6.95e-08 M and an IC50 [4] of 1.24e-07 M. For the same molecule, the IC50 [6] was 6.81e-07 M and the IC50 [7] was 8.92e-08 M.

Work on `O=C(O)c1cc(Oc2ccc(C(F)(F)F)cc2Cl)ccc1[N+](=O)[O-]` [ACIFLUORFEN] yielded an IC50 [2] of at least 1e-05 M, an IC50 [3] of at least 1e-05 M and an IC50 [4] of 6.72e-06 M. It also gave an IC50 [6] of at least 1e-05 M and an IC50 [7] of at least 1e-05 M.

Molecule `C=CCOC(=O)C(C)(C)OC(=O)c1cc(-n2c(=O)cc(C(F)(F)F)n(C)c2=O)ccc1Cl` [BUTAFENACIL] has an IC50 [2] of 1.28e-08 M, an IC50 [3] of 2.31e-08 M and an IC50 [4] of 6.69e-08 M. It also gave an IC50 [6] of 1.1e-07 M and an IC50 [7] of 5.04e-08 M.

With `CCOC(=O)C(Cl)Cc1cc(-n2nc(C)n(C(F)F)c2=O)c(F)cc1Cl` (stereo not shown) [CARFENTRAZONE-ETHYL] the IC50 [2] was 1.21e-07 M, the IC50 [3] was 2.99e-08 M and the IC50 [4] was 3.96e-07 M. For the same molecule, the IC50 [6] was 3.08e-07 M and the IC50 [7] was 8.52e-08 M.

For `C#CCN1C(=O)COc2cc(F)c(N3C(=O)C4=C(CCCC4)C3=O)cc21` [Flumioxazin, flumioxazin], the IC50 [2] was at least 1e-05 M, the IC50 [3] was at least 1e-05 M and the IC50 [4] was 7.28e-06 M. For the same molecule, the IC50 [6] was at least 1e-05 M, the IC50 [9] was 8430 nM and the IC50 [7] was at least 1e-05 M.

With `CS(=O)(=O)NC(=O)c1cc(Oc2ccc(C(F)(F)F)cc2Cl)ccc1[N+](=O)[O-]` [Fomesafen, fomesafen] the IC50 [2] was 2.91e-06 M, the IC50 [3] was 1.1e-05 M and the IC50 [4] was 2.36e-06 M. For the same molecule, the IC50 [6] was at least 1e-05 M and the IC50 [7] was at least 1e-05 M.

With `CCOC(=O)C(C)OC(=O)c1cc(Oc2ccc(C(F)(F)F)cc2Cl)ccc1[N+](=O)[O-]` (stereo not shown) [Lactofen, lactofen] the IC50 [2] was 6.13e-08 M, the IC50 [3] was 6.39e-08 M and the IC50 [4] was 1.5e-08 M. The IC50 [6] was 1.42e-07 M and the IC50 [7] was 1.43e-07 M.

For `CCOc1cc(Oc2ccc(C(F)(F)F)cc2Cl)ccc1[N+](=O)[O-]` [OXIFLUORFEN], the IC50 [2] was 3.68e-07 M, the IC50 [3] was 4.16e-07 M and the IC50 [4] was 6.52e-08 M. The IC50 [6] was 1.49e-06 M and the IC50 [7] was 1.13e-06 M.
